Test results taken from patent publication US8637511B2, “Aminopyrimidines useful as kinase inhibitors” (Vertex Pharmaceuticals Incorporated, priority 2005, dated 2014).
Where “and” joins values, the source holds several entries; their conditions need not be identical. Equal values may be shown once. Read-outs that look alike come from different tables or passages of the source.

What was measured:
Aurora-2 (Aurora A) = molecular target: T1, Aurora-2 (Aurora A) (Homo sapiens, UniProt O14965); assay: Aurora-2 (Aurora A) inhibition assay, coupled enzyme; assay type: biochemical
T1 sequence (O14965 1-403): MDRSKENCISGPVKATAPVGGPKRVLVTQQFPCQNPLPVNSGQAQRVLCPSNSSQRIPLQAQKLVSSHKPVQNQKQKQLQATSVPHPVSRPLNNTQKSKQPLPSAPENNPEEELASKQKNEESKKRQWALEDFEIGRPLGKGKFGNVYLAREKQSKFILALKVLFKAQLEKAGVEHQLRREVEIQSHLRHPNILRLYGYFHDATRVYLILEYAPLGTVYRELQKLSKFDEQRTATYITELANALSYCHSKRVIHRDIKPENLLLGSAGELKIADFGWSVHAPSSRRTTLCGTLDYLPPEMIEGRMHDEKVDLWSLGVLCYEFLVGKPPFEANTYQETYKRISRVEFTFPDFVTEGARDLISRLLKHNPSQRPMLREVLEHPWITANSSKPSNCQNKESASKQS
In short: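 These rates came from NADH consumption coupled through pyruvate kinase and lactate dehydrogenase (100 mM Hepes pH 7.5, 10 mM MgCl2, 300 μM NADH). Aurora-2 was present at 40 nM, and the reaction ran at 30 °C after a 10 min preincubation.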

JAK3 = molecular target: T2, JAK3 (Homo sapiens, UniProt P52333); assay: biochemical
T2 sequence (P52333 1-1124): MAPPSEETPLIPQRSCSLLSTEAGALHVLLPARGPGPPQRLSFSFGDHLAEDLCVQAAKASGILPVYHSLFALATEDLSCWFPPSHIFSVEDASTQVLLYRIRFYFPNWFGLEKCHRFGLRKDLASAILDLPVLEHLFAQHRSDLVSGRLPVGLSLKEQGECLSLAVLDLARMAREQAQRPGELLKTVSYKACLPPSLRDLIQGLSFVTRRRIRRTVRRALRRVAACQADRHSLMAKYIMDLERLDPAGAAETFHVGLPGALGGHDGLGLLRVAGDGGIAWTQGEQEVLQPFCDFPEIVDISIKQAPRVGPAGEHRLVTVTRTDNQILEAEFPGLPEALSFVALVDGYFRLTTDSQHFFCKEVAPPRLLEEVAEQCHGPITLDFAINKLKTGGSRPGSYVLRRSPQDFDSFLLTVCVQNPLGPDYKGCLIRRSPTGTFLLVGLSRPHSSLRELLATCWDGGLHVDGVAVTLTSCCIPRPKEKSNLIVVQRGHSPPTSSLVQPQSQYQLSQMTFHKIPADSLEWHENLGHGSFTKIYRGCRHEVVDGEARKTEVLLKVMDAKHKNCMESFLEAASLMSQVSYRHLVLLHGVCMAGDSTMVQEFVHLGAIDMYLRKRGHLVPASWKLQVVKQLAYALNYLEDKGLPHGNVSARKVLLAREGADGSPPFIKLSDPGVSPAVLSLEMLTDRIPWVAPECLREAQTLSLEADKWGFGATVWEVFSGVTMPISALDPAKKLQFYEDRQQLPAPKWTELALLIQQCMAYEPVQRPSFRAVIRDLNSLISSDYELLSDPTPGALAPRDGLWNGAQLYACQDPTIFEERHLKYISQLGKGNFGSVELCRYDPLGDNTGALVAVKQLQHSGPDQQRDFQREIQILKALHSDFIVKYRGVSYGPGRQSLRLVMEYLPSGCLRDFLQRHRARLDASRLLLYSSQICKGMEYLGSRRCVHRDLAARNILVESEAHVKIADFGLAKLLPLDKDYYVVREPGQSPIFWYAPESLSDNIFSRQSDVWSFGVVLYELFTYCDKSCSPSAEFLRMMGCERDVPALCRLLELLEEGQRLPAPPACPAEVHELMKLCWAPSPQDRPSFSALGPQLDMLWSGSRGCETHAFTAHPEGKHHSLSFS

Aurora-1 (Aurora B) = Aurora-1 (Aurora B) (Homo sapiens, UniProt Q96GD4); assay: Aurora-1 (Aurora B) inhibition assay (radiometric); assay type: biochemical; conditions: read-out: Aurora B kinase Ki value
In short: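 Ki values come from non-linear regression of background-corrected initial-rate data. The enzyme was preincubated 10 min at 25° C with compound, then reacted 3 h with 800 μM (final) [γ-^33P]-ATP in HEPES pH 7.5/MgCl2/BSA/glycerol buffer. The reaction was stopped with phosphoric acid and substrate-bound ^33P counted on phosphocellulose.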

Colo205 cells = assay: Analysis of cell proliferation and viability; assay type: cell-based; conditions: Homo sapiens, COLO 205, Colo205 cells, read-out: IC50 value
[1] = read-out: Aurora A kinase Ki value

Aurora-1 (Aurora B), sequence (Q96GD4 whole entry): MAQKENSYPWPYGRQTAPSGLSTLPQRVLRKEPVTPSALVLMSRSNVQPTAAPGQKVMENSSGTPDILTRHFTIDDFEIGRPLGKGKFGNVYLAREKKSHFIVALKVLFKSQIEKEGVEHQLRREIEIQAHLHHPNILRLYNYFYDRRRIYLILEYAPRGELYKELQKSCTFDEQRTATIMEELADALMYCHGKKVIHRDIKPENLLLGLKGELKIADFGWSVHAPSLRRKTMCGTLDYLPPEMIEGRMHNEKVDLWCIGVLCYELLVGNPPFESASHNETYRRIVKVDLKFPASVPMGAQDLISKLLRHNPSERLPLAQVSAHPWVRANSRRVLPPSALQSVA

SMILES | Ki (Aurora-2 (Aurora A); [1]) | Ki (JAK3) | Ki (Aurora-1 (Aurora B)) | IC50 (Colo205 cells; incubated for 96 hours) | Ki (Aurora-2 (Aurora A)) | Ki (JAK3; read-out: JAK3 Ki value) | IC50 (Colo205 cells; incubated for 72 hours)
Cc1cc(Nc2cc(N3CCC3)nc(Sc3ccc(NC(=O)OC(C)(C)C)cc3)n2)n[nH]1 [Compound 26] | 5 to 200 nM | 500 to 2000 nM | 50 to 2000 nM | > 1000 nM |  |  | 
Cc1ccc(S(=O)(=O)Nc2ccc(Sc3nc(Nc4cc(C)[nH]n4)cc(N4CCC4)n3)cc2)cc1 [Compound 27] |  | 500 to 2000 nM | 50 to 2000 nM | > 1000 nM | 1 to 5 nM |  | 
Cc1ccc(C(=O)Nc2ccc(Sc3nc(Nc4cc(C)[nH]n4)cc(N4CCC4)n3)cc2)cc1 [Compound 28] |  | 10 to 500 nM | 10 to 50 nM | 50 to 1000 nM | 1 to 5 nM |  | 
Cc1cc(Nc2cc(N3CCC3)nc(Sc3ccc(NC(=O)C4CCCCC4)cc3)n2)n[nH]1 [Compound 30] | 1 to 5 nM | 10 to 500 nM | 10 to 50 nM | 50 to 1000 nM |  |  | 
Cc1cc(Nc2cc(N3CCC3)nc(Sc3ccc(NC(=O)Cc4ccccc4)cc3)n2)n[nH]1 [Compound 35] | 1 to 5 nM | 500 to 2000 nM | 10 to 50 nM | 50 to 1000 nM |  |  | 
Cc1cc(Nc2cc(N3CC(C)C3)nc(Sc3ccc(NC(=O)c4ccccc4Cl)cc3)n2)n[nH]1 [Compound 39] | 1 to 5 nM |  | 10 to 50 nM and < 25 nM | 50 to 1000 nM |  | 10 to 500 nM | 
Cc1cc(Nc2cc(N3CCC3)nc(Sc3ccc(NC(=O)CC(F)(F)F)cc3)n2)n[nH]1 [Compound 40] | ≤ 1 nM |  | ≤ 10 nM | 50 to 1000 nM |  | 10 to 500 nM | 30 to 200 nM
Cc1cc(Nc2cc(N3CCC3)nc(Sc3ccc(NC(=O)c4ccc(F)cc4F)cc3)n2)n[nH]1 [Compound 44] | 1 to 5 nM |  | 10 to 50 nM | 50 to 1000 nM |  | 10 to 500 nM | 
Cc1cc(Nc2cc(N3CCC3)nc(Sc3ccc(C(=O)Nc4ccccc4Cl)cc3)n2)[nH]n1 [Compound 48] | 1 to 5 nM |  | ≤ 10 nM | 50 to 1000 nM |  | 10 to 500 nM | 
Cc1cc(Nc2cc(N3CCC3)nc(Sc3cccc(NC(=O)c4ccccc4Cl)c3)n2)[nH]n1 [Compound 49] | 5 to 200 nM |  | 50 to 2000 nM | > 1000 nM |  | 10 to 500 nM | 
CC1=NN=C(Nc2cc(N3CCC3)nc(Sc3ccc(NC(=O)c4ccccc4)cc3)n2)C1 [Compound 52] | 5 to 200 nM | 10 to 500 nM | 50 to 2000 nM | 50 to 1000 nM |  |  | 
Cc1cc(Nc2cc(N3CCC3)nc(Sc3ccc(NC(=O)c4ccc(Cl)cc4)cc3)n2)n[nH]1 [Compound 54] |  | 10 to 500 nM | 50 to 2000 nM | 50 to 1000 nM | 1 to 5 nM |  | 
CC1=NN=C(Nc2cc(N3CCC3)nc(Sc3ccc(NC(=O)c4cccc(C(F)(F)F)c4F)cc3)n2)C1 [Compound 55] |  | 10 to 500 nM | ≤ 10 nM | 50 to 1000 nM | ≤ 1 nM |  | 
Cc1cc(Nc2cc(N3CCC3)nc(Sc3ccc(NC(=O)Cc4cccc(Cl)c4)cc3)n2)[nH]n1 [Compound 58] | 1 to 5 nM |  | 10 to 50 nM and < 25 nM | 50 to 1000 nM |  | 500 to 2000 nM | 
Cc1cc(Nc2cc(N3CC(F)C3)nc(Sc3ccc(NC(=O)c4ccccc4Cl)cc3)n2)[nH]n1 [Compound 60] | 1 to 5 nM | 10 to 500 nM | 10 to 50 nM | 50 to 1000 nM |  |  | 
CC1=NN=C(Nc2cc(N3CCC3)nc(Sc3ccc(NC(=O)c4cccc(Cl)c4F)cc3)n2)C1 [Compound 61] | ≤ 1 nM |  | ≤ 10 nM | 50 to 1000 nM |  | 10 to 500 nM | 
Cc1cc(Nc2cc(N3CC(OC(C)(C)C)C3)nc(Sc3ccc(NC(=O)c4ccccc4Cl)cc3)n2)[nH]n1 [Compound 66] |  | 10 to 500 nM | ≤ 10 nM | 50 to 1000 nM | ≤ 1 nM |  | 

SMILES | Ki (Aurora-2 (Aurora A); [1]) | Ki (JAK3) | Ki (Aurora-1 (Aurora B)) | IC50 (Colo205 cells; incubated for 96 hours) | Ki (Aurora-2 (Aurora A)) | Ki (JAK3; read-out: JAK3 Ki value) | IC50 (Colo205 cells; incubated for 72 hours)
CCC(=O)Nc1ccc(Sc2nc(Nc3cc(C)n[nH]3)cc(N3CC(C)(O)C3)n2)cc1 [Compound 71] | 1 to 5 nM |  | 10 to 50 nM | ≤ 50 nM |  | 10 to 500 nM | 
CCCNC(=O)Nc1ccc(Sc2nc(Nc3cc(C)[nH]n3)cc(N3CCC3)n2)cc1 [Compound 73] | 5 to 200 nM |  | 50 to 2000 nM | > 1000 nM |  | 500 to 2000 nM | 
Cc1cc(Nc2cc(N3CCC3)nc(Sc3ccc(NC(=O)NCc4ccccc4)cc3)n2)n[nH]1 [Compound 74] | 5 to 200 nM | 10 to 500 nM | 50 to 2000 nM | > 1000 nM |  |  | 
CCC(=O)Nc1ccc(Sc2nc(Nc3cc(C4CC4)n[nH]3)cc(N3CC(C)(O)C3)n2)cc1 [Compound 76] | 1 to 5 nM | ≤ 10 nM | ≤ 10 nM | 50 to 1000 nM |  |  | 
CCC(=O)Nc1ccc(Sc2nc(C#CC(C)(C)N3CCC3)cc(Nc3cc(C)n[nH]3)n2)cc1 [Compound 77] | 1 to 5 nM | 500 to 2000 nM | 50 to 2000 nM | 50 to 1000 nM |  |  | 
CCC(=O)Nc1ccc(Sc2nc(Nc3cc(C4CC4)n[nH]3)cc(N3CC(N4CCOCC4)C3)n2)cc1 [Compound 78] | ≤ 1 nM |  | ≤ 10 nM | ≤ 50 nM |  | ≤ 10 nM | 
CCC(=O)Nc1ccc(Sc2nc(Nc3cc(C)n[nH]3)cc(N3CC(C)(C#N)C3)n2)cc1 [Compound 79] | 1 to 5 nM |  | 10 to 50 nM and < 25 nM | 50 to 1000 nM |  | 10 to 500 nM | 
CCC(=O)Nc1ccc(Sc2nc(Nc3cc(C)n[nH]3)cc(N3CC(C)(NC(C)(C)C)C3)n2)cc1 [Compound 80] | 1 to 5 nM | 10 to 500 nM | 10 to 50 nM | ≤ 50 nM |  |  | 
CCC(=O)Nc1ccc(Sc2nc(Nc3cc(C)n[nH]3)cc(N3CC(O)(C(C)(C)C)C3)n2)cc1 [Compound 81] | ≤ 1 nM |  | ≤ 10 nM | ≤ 50 nM |  | ≤ 10 nM | ≤ 30 nM
CCC(=O)Nc1ccc(Sc2nc(Nc3cc(C)n[nH]3)cc(N3CC(O)(C(F)(F)F)C3)n2)cc1 [Compound 94] | 1 to 5 nM |  | 10 to 50 nM and < 25 nM | 50 to 1000 nM |  | 10 to 500 nM | 
CCC(=O)Nc1ccc(Sc2nc(Nc3cc(C)n[nH]3)cc(N3CC(C)(OC(C)C)C3)n2)cc1 [Compound 95] | 1 to 5 nM | 10 to 500 nM | 10 to 50 nM and < 25 nM | ≤ 50 nM |  |  | 
CCC(=O)Nc1ccc(Sc2nc(Nc3cc(C)n[nH]3)cc(N3CC(C)(OC(C)(C)C)C3)n2)cc1 [Compound 96] | 1 to 5 nM | 10 to 500 nM | 10 to 50 nM and < 25 nM | ≤ 50 nM |  |  | 
Cc1cc(Nc2cc(N3CCC3)nc(Sc3ccc(N)cc3)n2)[nH]n1 [Compound 108] | 5 to 200 nM |  | 50 to 2000 nM | > 1000 nM |  | ≤ 10 nM | 
Cc1cc(Nc2cc(N3CCC3)nc(Sc3ccc(NC(=O)C4CC4(F)F)cc3)n2)[nH]n1 (centres unmarked) [Compound 112] | 1 to 5 nM |  | 10 to 50 nM and < 25 nM |  |  | ≤ 10 nM | > 200 nM
Cc1cc(Nc2cc(N3CCC3)nc(Sc3ccc(NC(=O)C(C)(C)C)cc3)n2)[nH]n1 [Compound 114] | 1 to 5 nM | 500 to 2000 nM | 10 to 50 nM |  |  |  | > 200 nM
Cc1cc(Nc2cc(N3CC(C)(O)C3)nc(Sc3ccc(NC(=O)c4ccccc4C(F)(F)F)cc3)n2)[nH]n1 [Compound 115] |  | ≤ 10 nM | ≤ 10 nM |  | ≤ 1 nM |  | 30 to 200 nM
